One may read the IC50 as the midpoint of a concentration-inhibition curve.

The test system of series [1] is ID-8. Nature of the series: Cytotoxicity assay, MTT method, ID-8 cells. The following applies: read-out: Cytotoxicity (IC50, nM) ID-8. (In general: Formazan colour is commonly taken as a measure of viable cells.)
Series [2] concerns MX-1. Nature of the series: Cytotoxicity assay, MTT method, MX-1 cells. The following applies: read-out: Cytotoxicity (IC50, nM) MX-1.
Series [3] in a line: in vitro. The following applies: human.
Series [4] concerns WI-38. Kind of series: Cytotoxicity assay, MTT method, WI-38 cells. Particulars: read-out: Cytotoxicity (IC50, nM) WI-38; 72 hours of drug exposure at 37° C. under 5% CO2.
[5] abbreviates: 72 hours of drug exposure at 37° C. under 5% CO2.

SMILES strings stand for the structures. Where two headings read alike, the source gives them in different places.

Take `CC(=O)O[C@H]1C(=O)[C@@]2(C)[C@H]([C@H](OC(=O)c3ccccc3)[C@]3(O)C[C@H](OC(=O)[C@H](O)[C@@H](NC(=O)c4ccccc4)c4ccccc4)C(C)=C1C3(C)C)[C@]1(OC(C)=O)CO[C@@H]1C[C@@H]2O` [Paclitaxel]: the IC50 turned out to be 21.2 nM in series [1] (Mus musculus, ID8, 72 h) and 3.83 nM in series [2] (Homo sapiens, MX1, 72 h). In series [3], the IC50 at 72 h was 175 nM.
Turning to `CC(=O)O[C@@]12CO[C@@H]1C[C@H](O)[C@@]1(C)C(=O)[C@H](OC(=O)C3CC3)C3=C(C)[C@@H](OC(=O)[C@H](O)[C@H](C=C(C)C)NC(=O)OC(C)(C)C)C[C@@](O)([C@@H](OC(=O)c4ccccc4)[C@H]21)C3(C)C` [SB-T-1214], the figures for the IC50 in series [4], in series [1] (setting [5]) and in series [2] (setting [5]) were 4.14 nM, 1.89 nM and 2.9 nM, respectively.

The record behind these values is patent US10029014B2, “Synthesis of novel asymmetric bow-tie PAMAM dendrimer-based conjugates for tumor-targeting drug delivery” (priority 2013, dated 2018).
